Assay results: US11312754B2, “Sunflower seed protein-derived peptides” (ACCESS BUSINESS GROUP INTERNATIONAL LLC, priority 2019, dated 2022)
≈ marks a conversion by molar mass, not a printed value. Where a SMILES comes first, the peptide text is derived from it. Where no end group is shown, it is not given here.

What was measured:
[1] = DPPH radical scavenging assay; conditions: individual isolated peptides
Method: The scavenging activity of crude hydrolysate and the protein hydrolysate composition of Fraction 7 against DPPH is determined by first dissolving samples (crude hydrolysate and the protein hydrolysate composition of Fraction 7 of Example 1) in 0.1 M sodium phosphate buffer, pH 7.0 containing 1% (w/v) Triton X-100. DPPH is dissolved in methanol to a final concentration of 100 μM, and mixed with the samples in the 96-well plate to a final assay concentration of 1 mg/mL. The samples are then incubated at room temperature in the dark for 30 min, and the absorbance read at 517 nm.
The procedure set forth about for Examples 10 & 11 is repeated using samples containing one of the isolated peptides 1-4 of Fraction 7 of Example 1.

[2] = Hydroxyl radical scavenging activity (HRSA) assay; conditions: individual isolated peptides
Method: The hydroxyl radical scavenging activity of crude hydrolysate and the protein hydrolysate composition of Fraction 7 is determined by dissolving samples (crude hydrolysate and the protein hydrolysate composition of Fraction 7 of Example 1) and 1,10-phenanthroline in 0.1 M sodium phosphate buffer (pH 7.4). FeSO4 (3 mM) and 0.01% hydrogen peroxide are separately dissolved in distilled water. An aliquot (50 μL) of samples (final assay concentration of 0.5 mg/mL) or buffer (control) is first added to a clear, flat bottom 96-well plate followed by additions of 50 μL of 1,10-phenanthroline and 50 μL of FeSO4. To initiate reaction in the wells, 50 μL of hydrogen peroxide (H2O2) solution is added to the mixture, which is then covered and incubated at 37° C. for 1 h with shaking. Absorbance is measured at 536 nm every 10 min for a period of 1 h.
The procedure set forth above for Examples 12 & 13 is repeated using samples containing one of the isolated peptides 1-4 of Fraction 7 of Example 1.

ACE = ACE (Homo sapiens, UniProt P12821); assay: ACE inhibition assay (FAPGG substrate); format: biochemical; conditions: individual isolated peptides
Method: The ability of sample to inhibit in vitro activity of ACE is determined by mixing 1 mL of FAPGG (0.5 mM, dissolved in buffer [50 mM Tris-HCl buffer containing 0.3 M NaCl, pH 7.5]) with 20 μL ACE (1 U/mL, final activity of 20 mU) and 200 μL sample (crude hydrolysate and the protein hydrolysate composition of Fraction 7 of Example 1, each dissolved in buffer to 1 mg/mL). The rate of decrease in absorbance at 345 nm is recorded for 2 min at room temperature. The results of the assay are set forth in Table 3 below, expressed as percent inhibition.
The procedure set forth above for Examples 16 & 17 is repeated using samples containing one of the isolated peptides 1-4 of Fraction 7 of Example 1.

human recombinant renin = biological target: T1, human recombinant renin (Homo sapiens, UniProt P00797); assay: Renin inhibition assay (Renin Inhibitor Screening Assay Kit); format: biochemical; conditions: individual isolated peptides, 1 mg/mL; read-out: % Inhibition ± SD of renin activity
T1 construct: purchased
T1 sequence (P00797 67-406): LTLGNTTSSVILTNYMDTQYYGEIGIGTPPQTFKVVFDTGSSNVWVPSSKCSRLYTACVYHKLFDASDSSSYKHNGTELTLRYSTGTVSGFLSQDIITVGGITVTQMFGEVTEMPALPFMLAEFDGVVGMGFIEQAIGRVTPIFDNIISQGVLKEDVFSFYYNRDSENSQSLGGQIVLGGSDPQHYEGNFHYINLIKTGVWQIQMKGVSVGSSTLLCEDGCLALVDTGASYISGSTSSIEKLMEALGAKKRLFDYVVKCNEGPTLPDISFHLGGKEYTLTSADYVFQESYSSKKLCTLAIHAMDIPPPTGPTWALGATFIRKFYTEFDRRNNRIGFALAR
Method: In vitro inhibitory activity of human recombinant renin is conducted using a Renin Inhibitor Screening Assay Kit. Samples (crude hydrolysate and the protein hydrolysate composition of Fraction 7 of Example 1) are diluted in Tris-HCl buffer (50 mM, pH 8.0, containing 100 mM NaCl) to a final concentration 0.5 mg/mL, and pre-warmed to 37° C. The reaction is initiated by adding renin (10 μL), shaking for 10 s to mix, and incubating at 37° C. for 15 min. Fluorescence intensity (FI) is then recorded at an excitation wavelength of 340 nm and an emission wavelength of 490 nm using a fluorometric microplate reader. The results of the assay are set forth in Table 3 below, expressed as percent inhibition. The procedure set forth above for Examples 18 & 19 is repeated at 1 mg/mL concentrations using samples containing one of the isolated peptides 1-4 of Fraction 7 of Example 1.

Sequence of ACE (P12821 30-1306, species assumed): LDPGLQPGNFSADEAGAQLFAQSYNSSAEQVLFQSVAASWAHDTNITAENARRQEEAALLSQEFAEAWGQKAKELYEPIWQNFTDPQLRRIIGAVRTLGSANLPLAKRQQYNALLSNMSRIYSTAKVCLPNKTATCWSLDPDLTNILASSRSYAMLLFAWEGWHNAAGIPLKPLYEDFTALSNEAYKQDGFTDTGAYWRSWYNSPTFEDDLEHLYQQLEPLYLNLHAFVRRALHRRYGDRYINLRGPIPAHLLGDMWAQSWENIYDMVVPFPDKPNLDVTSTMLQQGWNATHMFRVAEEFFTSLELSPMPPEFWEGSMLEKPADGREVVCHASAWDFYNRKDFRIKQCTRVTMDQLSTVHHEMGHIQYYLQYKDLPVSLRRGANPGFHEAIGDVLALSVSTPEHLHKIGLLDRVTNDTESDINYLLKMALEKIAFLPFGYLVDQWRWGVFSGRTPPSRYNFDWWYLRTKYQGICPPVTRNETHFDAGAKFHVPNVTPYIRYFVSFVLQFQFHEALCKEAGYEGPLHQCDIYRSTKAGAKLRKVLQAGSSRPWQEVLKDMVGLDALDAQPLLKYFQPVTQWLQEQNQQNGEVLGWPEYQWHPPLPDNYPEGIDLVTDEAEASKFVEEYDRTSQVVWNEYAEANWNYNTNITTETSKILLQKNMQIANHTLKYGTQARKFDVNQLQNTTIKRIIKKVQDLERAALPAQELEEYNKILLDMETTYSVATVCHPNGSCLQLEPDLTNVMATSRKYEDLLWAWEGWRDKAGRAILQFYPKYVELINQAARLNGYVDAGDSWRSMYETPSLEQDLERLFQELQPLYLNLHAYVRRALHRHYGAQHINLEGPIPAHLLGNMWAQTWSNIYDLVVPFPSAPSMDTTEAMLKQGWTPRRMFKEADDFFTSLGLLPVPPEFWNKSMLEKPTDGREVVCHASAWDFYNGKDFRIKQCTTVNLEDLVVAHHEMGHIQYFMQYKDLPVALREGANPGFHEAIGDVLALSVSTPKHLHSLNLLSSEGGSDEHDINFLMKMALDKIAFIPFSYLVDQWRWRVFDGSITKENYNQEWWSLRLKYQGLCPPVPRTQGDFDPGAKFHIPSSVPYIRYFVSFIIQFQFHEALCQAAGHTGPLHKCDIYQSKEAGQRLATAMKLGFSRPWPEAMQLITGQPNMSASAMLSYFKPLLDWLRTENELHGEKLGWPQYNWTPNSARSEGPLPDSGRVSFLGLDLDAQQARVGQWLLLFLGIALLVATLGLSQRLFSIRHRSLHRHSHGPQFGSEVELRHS

Compound | IC50 DPPH radical scavenging [1] [µg/mL] | IC50 hydrogen (hydroxyl) radical scavenging [2] [µg/mL] | IC50 (ACE) [µM] | inhibition at 1000 µg/mL (human recombinant renin) [%]
CC(C)[C@H](NC(=O)[C@H](Cc1ccccc1)NC(=O)[C@@H](N)Cc1ccc(O)cc1)C(=O)N1CCC[C@H]1C(=O)O [Peptide 1, Tyr-Phe-Val-Pro] (H-YFVP-OH; N-terminus and C-terminus assumed) | 3850 ± 130 (≈ 7.34 mM) | 1930 ± 20 (≈ 3.68 mM) | 477 | -40.5 ± 6.23
MVWGP [Peptide 3, Met-Val-Trp-Gly-Pro] | 4690 ± 50 | 2500 ± 30 | 35.7 | -46.4 ± 1.56
SGRDP [Peptide 2, Ser-Gly-Arg-Asp-Pro] | 28340 ± 380 | 1900 ± 80 | 961 | -54.5 ± 1.48
TGSYTEGWS [Peptide 4, Thr-Gly-Ser-Tyr-Thr-Glu-Gly-Trp-Ser] | 4260 ± 30 | 1840 ± 10 | 557 | 107 ± 17.6
